Data on two compounds can be found in US20180318834A1, “INTEGRATION OF ELECTROCHECMICAL PH MODULATION WITH LAB ON A CHIP TECHNOLOGIES” (Robert Bosch GmbH, priority 2015, published 2018).

Each structure is given as a SMILES string.

The nature of data set [1]: Electrochemical generation of H+ or OH- ions at indium tin oxide electrode surfaces (cyclic voltammetry). It counts as physicochemical. From the text:
FIG. 7B: Cyclic voltammetric study of the oxidation of Ascorbic acid test in ITO electrodes. Current increase around 0.25V indicates the start of oxidation at ITO electrodes.
Electrode material used: The electrode material was indium tin oxide. This is a semiconducting electrode surface with very large potential window in an aqueous solution.
Oxidation of ascorbic acid at the electrode surfaces produced H^+ ions and changed the electrode surface pH to a more acidic state:
The electrode potential at which it oxidizes was less than 0.5V for Indium tin oxide material vs Ag/AgCl reference electrode (as shown in FIG. 7). This potential was less than the voltages needed for the oxygen evolution reaction in aqueous solution. The ascorbic acid also acted as a sacrificial species to prevent electrochemical degradation of the surface chemistry.
Reduction of benzoquinone (C6H4O2) into Hydroquinone (C6H6O2) can produce OH^− ions at −0.1V: […]

Data set [2] has as its target Green Fluorescent Protein (GFP) (Aequorea victoria, UniProt P42212). Kind of data set: Effect of benzoquinone substitution on protein (GFP) stability, by fluorescence intensity. The class given is biochemical. The settings on record: incubation 30 min in phosphate buffered saline, concentration of benzoquinones 0.5 mM. From the text:
Para-benzoquinones and ortho-benzoquinones (compounds 2, 4, 6, and 9 in FIG. 31) are susceptible to nucleophilic attack at the double bond of the ring (positions 2, 3, 5 and 6 in structure 2 of FIG. 31, positions 3, 4, 5 and 6 in structure 4 of FIG. 31, and positions 2 and 3 in structure 6 of FIG. 31). Introducing substituents at some or all of those positions can mitigate the problem of nucleophilic attack. For example, 1,4-benzoquinone (structure 2 in FIG. 31, where R1, R2, R3 and R4 are H) undergoes Michael addition reaction with amino groups of proteins (Loomis et al., Phytochemistry, 5, 423, (1966) and U.S. Pat. No. 6,753,312 B2). […] Fluorescence intensity of Green Fluorescent Protein (GFP) was measured after incubation with three different benzoquinones in phosphate buffered saline for 30 min (concentration of benzoquinones was 0.5 mM). The difference in fluorescence intensity indicates the varied effect that the different substitutions in benzoquinones have on the stability of GFP. Fluorescence intensity of GFP is indicative of its structural integrity. Losses in fluorescence intensity usually indicate loss of its tertiary structure (protein denaturation) (Yin D. X., Zhu L., Schimke R. T. Anal. Biochem. 1996, 235:195-201).

Consider `O=C1O[C@H]([C@@H](O)CO)C(O)=C1O` [ascorbic acid], for which the “electrode potential at which it oxidizes” value in data set [1] (Indium tin oxide material vs Ag/AgCl reference electrode) was “less than 0.5 V”. In data set [1] (cyclic voltammetric study at ITO electrodes), the “start of oxidation (current increase)” value was “around 0.25 V”.
Regarding `O=C1C=CC(=O)C=C1` [unsubstituted benzoquinone, 1,4-benzoquinone], the “potential of reduction into Hydroquinone producing OH- ions” value in data set [1] (electro-reduction at indium tin oxide electrode) is reported as −0.1 V. The “loss in GFP fluorescence intensity after incubation” value in data set [2] is recorded as 25%.
